In ChEMBL document CHEMBL3045356, “Synthesis and biological evaluation of a novel class as antileishmanial agent” (Med Chem Res, 2012):
Calls of active or inactive are those of the source. The rule behind the calls is not given here.

How the values were obtained:
Leishmania major [1] = assay: Antileishmanial activity against promastigote stage of Leishmania major MHOM/IL/81/FEBNI infected Swiss albino mouse assessed as inhibition of lesion development in inoculated footpad at 20 umol administered 21 days post infection measured after 5 weeks relative to untreated mouse; format: functional, organism-based
Leishmania major [2] = assay: Antileishmanial activity against promastigote stage of Leishmania major MHOM/IL/81/FEBNI infected Swiss albino mouse assessed as decrease in parasite number in cutaneous lesion at 20 umol administered 21 days post infection measured after 5 weeks by Giemsa staining; format: functional, organism-based
Leishmania major [3] = assay: Antileishmanial activity against promastigote stage of Leishmania major MHOM/IL/81/FEBNI infected Swiss albino mouse assessed as inhibition of gangrene in inoculated footpad at 20 umol administered 21 days post infection measured after 5 weeks relative to untreated mouse; format: functional, organism-based
Leishmania major [4] = assay: Antileishmanial activity against promastigote stage of Leishmania major MHOM/IL/81/FEBNI infected Swiss albino mouse assessed as inhibition of autoamputation of inoculated footpad at 20 umol administered 21 days post infection measured after 5 weeks relative to untreated mouse; format: functional, organism-based
Leishmania major [5] = assay: Antileishmanial activity against promastigote stage of Leishmania major MHOM/IL/81/FEBNI assessed as cell viability at 10 umol measured every day for 5 days by light microscopic analysis; format: functional, organism-based
Leishmania major [6] = assay: Antileishmanial activity against promastigote stage of Leishmania major MHOM/IL/81/FEBNI infected Swiss albino mouse assessed as decrease in cutaneous lesion progression at 20 umol administered 21 days post infection measured after 5 weeks relative to untreated mouse; format: functional, organism-based
Leishmania major [7] = assay: Antileishmanial activity against promastigote stage of Leishmania major MHOM/IL/81/FEBNI assessed as parasite motility at 10 umol measured every 10 min for 1 hr by light microscopic analysis; format: functional, organism-based
Leishmania major [8] = assay: Antileishmanial activity against promastigote stage of Leishmania major MHOM/IL/81/FEBNI infected Swiss albino mouse assessed as decrease in parasite-induced inflammatory reaction in cutaneous lesion at 20 umol administered 21 days post infection measured after 5 weeks by Giemsa staining; format: functional, organism-based
Mus musculus [9] = assay: Toxicity in Mus musculus Swiss albino (mouse) infected with promastigote stage of Leishmania major MHOM/IL/81/FEBNI assessed as severe irritation of epidermis at 20 umol administered 21 days post infection measured after 5 weeks; format: organism-based; details: in vivo, 840 h
Leishmania major [10] = assay: Antileishmanial activity against promastigote stage of Leishmania major MHOM/IL/81/FEBNI infected Swiss albino mouse assessed as decrease in swelling and redness of inoculated footpad at 20 umol administered 21 days post infection measured after 5 weeks; format: functional, organism-based
Mus musculus [11] = assay: Toxicity in Mus musculus Swiss albino (mouse) infected with promastigote stage of Leishmania major MHOM/IL/81/FEBNI assessed as vascular thrombosis at 20 umol administered 21 days post infection measured after 5 weeks; format: organism-based; details: in vivo, 840 h
Mus musculus [12] = assay: Toxicity in Mus musculus Swiss albino (mouse) infected with promastigote stage of Leishmania major MHOM/IL/81/FEBNI assessed as deposition of haemosidrin in macrophages at 20 umol administered 21 days post infection measured after 5 weeks; format: organism-based; details: in vivo, 840 h

SMILES: COc1cc(C2NC(=S)NC(C)=C2C(=O)NNC(=O)c2ccccc2O)cc(OC)c1OC (stereo unspecified)
- inhibition (Leishmania major [1]): inactive
- Activity (Leishmania major [2]): inactive
- inhibition (Leishmania major [3]): inactive
- inhibition of footpad autoamputation (active/not active) (Leishmania major [4]): inactive
- Activity (Leishmania major [5]): Active
- Activity (Leishmania major [6]): Active
- Activity (Leishmania major [7]): Active

SMILES: C/C=C/C(=O)NNC(=O)C1=C(C)NC(=S)NC1c1cccc([N+](=O)[O-])c1 (stereo unspecified)
- Activity (Leishmania major [2]): Active
- Activity (Leishmania major [8]): Active
- Activity (Mus musculus [9]): Non-toxic
- Activity (Leishmania major [10]): Active
- Activity (Leishmania major [5]): Active
- Activity (Leishmania major [7]): Active

SMILES: CC1=C(C(=O)NNC(=O)c2ccccc2O)C(c2ccc(N(C)C)cc2)NC(=S)N1 (stereo unspecified)
- Activity (Leishmania major [2]): inactive
- inhibition of footpad autoamputation (active/not active) (Leishmania major [4]): Active
- Activity (Leishmania major [5]): Active
- Activity (Leishmania major [6]): Active
- Activity (Leishmania major [7]): Active

SMILES: CC1=C(C(=O)NNC(=O)c2ccccc2O)C(c2ccc(N(C)C)cc2)NC(=O)N1 (stereo unspecified)
- inhibition (Leishmania major [1]): inactive
- Activity (Leishmania major [2]): inactive
- inhibition (Leishmania major [3]): inactive
- inhibition of footpad autoamputation (active/not active) (Leishmania major [4]): inactive
- Activity (Leishmania major [5]): Active
- Activity (Leishmania major [6]): Active
- Activity (Leishmania major [7]): Active

SMILES: CC1=C(C(=O)NNC(=O)c2ccccc2O)C(c2cccc([N+](=O)[O-])c2)NC(=O)N1 (stereo unspecified)
- Activity (Leishmania major [2]): Active
- Activity (Leishmania major [8]): Active
- Activity (Mus musculus [9]): Toxic
- Activity (Leishmania major [10]): Active
- Activity (Leishmania major [5]): Active
- Activity (Leishmania major [7]): Active

SMILES: CC1=C(C(=O)NNC(=O)c2ccccc2O)C(c2cccc([N+](=O)[O-])c2)NC(=S)N1 (stereo unspecified)
- Activity (Leishmania major [2]): Active
- Activity (Leishmania major [8]): Active
- Activity (Mus musculus [9]): Toxic
- Activity (Leishmania major [10]): Active
- Activity (Leishmania major [5]): Active
- Activity (Leishmania major [7]): Active

SMILES: CC1=C(C(=O)N(CCO)CCO)C(c2cccc([N+](=O)[O-])c2)NC(=S)N1 (stereo unspecified)
- Activity (Leishmania major [2]): inactive
- inhibition of footpad autoamputation (active/not active) (Leishmania major [4]): Active
- Activity (Leishmania major [5]): Active
- Activity (Leishmania major [6]): Active
- Activity (Leishmania major [7]): Active

SMILES: CC(=O)Nc1ccc(NC(=O)C2=C(C)NC(=O)NC2c2ccc(N(C)C)cc2)cc1 (stereo unspecified)
- Activity (Leishmania major [2]): inactive
- inhibition of footpad autoamputation (active/not active) (Leishmania major [4]): Active
- Activity (Mus musculus [11]): Toxic
- Activity (Mus musculus [12]): Toxic
- Activity (Mus musculus [9]): Toxic
- Activity (Leishmania major [5]): Active
- Activity (Leishmania major [6]): Active
- Activity (Leishmania major [7]): Active

SMILES: CC1=C(C(=O)N(CCCl)CCCl)C(c2cccc([N+](=O)[O-])c2)NC(=S)N1 (stereo unspecified)
- Activity (Leishmania major [2]): Active
- Activity (Leishmania major [8]): Active
- Activity (Mus musculus [9]): Non-toxic
- Activity (Leishmania major [10]): Active
- Activity (Leishmania major [5]): Active
- Activity (Leishmania major [7]): Active
